This is an account of results in patent US11286268B1, “EIF4E-inhibiting compounds and methods” (EFFECTOR THERAPEUTICS, INC., priority 2019, dated 2022).

Read-outs that look alike come from different tables or passages of the source. Some results are limits rather than exact numbers.

This test deals with recombinant eIF4E (Homo sapiens (Human), UniProt P06730). The experiment in a line: Fluorescence polarization competition assay for eIF4E binding potency. The gist of the method:
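Competitive displacement format: compounds compete with a fluorescent m7GDP tracer (20 nM) for 75 nM recombinant eIF4E. Incubation is 30 min at room temperature, protected from light, with 1% DMSO. Polarization read gives IC50 over eight 3-fold concentrations.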
In general terms: Fluorescence polarisation rises when a labelled molecule tumbles more slowly, as on binding a larger partner.

The mark [1] stands for this setting: fluorescence polarization competition, 75 nM recombinant eIF4E, 20 nM EDA-m7GDP-ATTO-550, IC50 class, read-out: elF4E FP.
[2] abbreviates: inhibition of eIF4E/EDA-m7GDP-ATTO-550 binding by 50%, Table 4B calculated values, read-out: IC50.
[3] abbreviates: inhibition of eIF4E/EDA-m7GDP-ATTO-550 binding, calculated IC50 values, Table 4B, read-out: IC50.

Sequence of recombinant eIF4E (P06730 whole entry): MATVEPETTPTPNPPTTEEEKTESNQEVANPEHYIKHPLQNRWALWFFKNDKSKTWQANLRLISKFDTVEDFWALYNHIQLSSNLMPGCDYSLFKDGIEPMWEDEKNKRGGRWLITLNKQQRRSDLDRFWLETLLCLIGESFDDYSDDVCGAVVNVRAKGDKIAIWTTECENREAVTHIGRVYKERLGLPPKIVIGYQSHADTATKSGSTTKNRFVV

As to `Cc1nc2cc(F)cc(C#N)c2c(=O)n1CCOc1ccc(Cl)cc1-c1cccc(C(=O)O)c1` [compound 167], the IC50 reads like this: under setting [1], 50 to 1000 nM; under setting [2], 101 nM.

Consider `O=C(O)c1cccc(-c2cc(Cl)ccc2OCCn2cnc3cccnc3c2=O)c1` [compound 21], for which the IC50 was 50 to 1000 nM under setting [1] and 575 nM under setting [2]. The corresponding values for `C#Cc1sc2c(-c3cc(Cl)ccc3OCCn3c(C)nc4cc(C(F)(F)F)cc(C#N)c4c3=O)ccnc2c1C(=O)O` [compound 267] are 50 to 1000 nM and 74.1 nM. Take `O=C(O)c1cccc(-c2cc(Cl)ccc2OCCn2ccc3cnccc3c2=O)c1` [compound 5]: the IC50 under setting [1] is above 1000 nM and the IC50 under setting [2] is 7640 nM. The corresponding values for `CNS(=O)(=O)c1cc2c(=O)n(CCOc3ccc(Cl)cc3-c3cccc(C(=O)O)c3)cnc2cn1` [compound 32] are 50 to 1000 nM and 190 nM. On the same counts, the results for `Cc1nc2c(C3CCC(F)(F)CC3)ncc(C#N)c2c(=O)n1CCOc1ccc(Cl)cc1-c1ccnc2c(C(=O)O)csc12` [compound 284] are below 50 nM and 19.6 nM. On the same counts, the results for `Cc1cc(-c2cc(Cl)ccc2OCCn2c(C)nc3cc(C(F)(F)F)c(Cc4ncccc4F)c(C#N)c3c2=O)c2scc(C(=O)O)c2n1` [compound 473] are below 50 nM and 14.5 nM. Regarding `C#Cc1c(C(F)(F)F)cc2nc(C)n(CCOc3ccc(Cl)cc3-c3cc(C)nc4c(C(=O)O)csc34)c(=O)c2c1C#N` [compound 790], the IC50 is, setting by setting: under setting [1], below 50 nM; under setting [2], 17.8 nM. For `Cc1nc2cc(C(F)(F)F)cc(C#N)c2c(=O)n1CCOc1ccc(Cl)cc1-c1ncnc2c(C(=O)O)csc12` [compound 215], the IC50 under setting [1] was 50 to 1000 nM.

For `Cc1nc2cnc(N(C)C3CCN(CC(F)(F)F)CC3)c(C#N)c2c(=O)n1CC#Cc1ccc(Cl)cc1-c1ccnc2c(C(=O)NS(=O)(=O)c3cn(C)cn3)csc12` [compound 1667], the IC50 under setting [3] was 12.2 nM. The same measure, in the same setting: as for `Cc1nc2cnc(N(C)C3CCN(C4CC(F)(F)C4)CC3)c(C#N)c2c(=O)n1CC#Cc1ccc(Cl)cc1-c1ccnc2c(C(=O)NS(=O)(=O)C3CC3)csc12` [compound 1809], the figure is 7.57 nM. On the same count and under the same terms, with `Cc1nc2cc(C(F)(F)F)cc(C#N)c2c(=O)n1CCOc1ccc(Cl)cc1-c1cc(CCN)nc2c(C(=O)O)csc12` [compound 1374] the figure was 56.1 nM. Turning to `CC(=O)Nc1cc2c(=O)n(CCOc3ccc(Cl)cc3-c3cccc(C(=O)O)c3)cnc2cn1` [compound 131], the IC50 was 50 to 1000 nM under setting [1] and 600 nM under setting [2].

Consider `Cc1ccc(-c2cc(Cl)ccc2OCCn2c(C)nc3cc(C(F)(F)F)c(CN(C)C)c(C#N)c3c2=O)c2scc(C(=O)O)c12` [compound 564], for which the IC50 runs as follows: under setting [1], below 50 nM; under setting [2], 40.5 nM. On the same counts, the results for `Cc1nc2cc(S(C)(=O)=O)c(F)c(C#N)c2c(=O)n1CCOc1ccc(Cl)cc1-c1ccnc2c(C(=O)O)csc12` [compound 278] are below 50 nM and 12.7 nM. Consider `Cc1cc(-c2cc(Cl)ccc2OCCn2c(C)nc3c(F)cc(C(F)F)c(C#N)c3c2=O)c2cccc(C(=O)O)c2n1` [compound 490], for which, under setting [1], the IC50 fell in the range of 50 to 1000 nM. Consider `Cc1ccc(-c2cc(Cl)ccc2OCCn2c(C)nc3cc(C(F)(F)F)c(CN4CCN(C)CC4)c(C#N)c3c2=O)c2scc(C(=O)O)c12` [compound 719], for which the IC50 was below 50 nM under setting [1] and 28.5 nM under setting [2]. On the same counts, the results for `CCN(c1ncc2nc(C)n(CC#Cc3ccc(Cl)cc3-c3ccnc4c(C(=O)O)csc34)c(=O)c2c1C#N)C1CCN(CC(F)(F)F)CC1` [compound 1176] are below 50 nM and 34.3 nM. With `Cc1nc2cnc(N(C)C3CCN(CC(F)(F)F)CC3)c(C#N)c2c(=O)n1CC#Cc1ccc(Cl)cc1-c1ccnc2c(C(=O)NS(=O)(=O)C3CC(F)(F)C3)csc12` [compound 1677], the IC50 under setting [3] is 12.9 nM. As to `Cc1cc(-c2cc(Cl)ccc2OCCn2c(C)nc3cc(C)c(C)c(C#N)c3c2=O)c2scc(C(=O)O)c2n1` [compound 628], the IC50 is below 50 nM under setting [1] and 28.5 nM under setting [2]. With `Cc1cc(-c2cc(Cl)ccc2OCCn2c(C)nc3c(C)nc(-c4cc(F)ccc4Cl)c(C#N)c3c2=O)c2scc(C(=O)O)c2n1` [compound 999], the IC50 was below 50 nM under setting [1] and 16.3 nM under setting [2].

Turning to `Cc1nc2ccc(C(N)=O)c(C#N)c2c(=O)n1CCOc1ccc(Cl)cc1-c1ccnc2c(C(=O)O)csc12` [compound 316], the IC50 by setting is: under setting [1], below 50 nM; under setting [2], 20.4 nM. The corresponding values for `Cc1cc(-c2ncc3nc(C)n(CCOc4ccc(Cl)cc4-c4ccc(C)c5c(C(=O)O)csc45)c(=O)c3c2C#N)ccn1` [compound 763] are below 50 nM and 5.19 nM.

For `Cc1nc2cc(C(F)(F)F)cc(C#N)c2c(=O)n1CCOc1ccc(Cl)cc1-c1cccc2c(C(=O)O)c[nH]c12` [compound 322], the IC50 by setting is: under setting [1], 50 to 1000 nM; under setting [2], 116 nM. As to `N#Cc1cc2c(=O)n(CCOc3ccc(Cl)cc3-c3cc(C(=O)O)c(F)c(F)c3F)cnc2cn1` [compound 101], the IC50 reads like this: under setting [1], above 1000 nM; under setting [2], 43800 nM. The corresponding values for `Cc1nc2cc(C(F)(F)F)c(OC(F)F)c(C#N)c2c(=O)n1CCOc1ccc(Cl)cc1-c1ccnc2c(C(=O)O)csc12` [compound 549] are below 50 nM and 19.3 nM. On the same counts, the results for `Cc1cc(-c2cc(Cl)ccc2OCCn2c(C)nc3ccc(N4CCN(C)CC4)nc3c2=O)c2scc(C(=O)O)c2n1` [compound 678] are 50 to 1000 nM and 53.8 nM.

In the case of `Cc1nc2cc(C(F)(F)F)c(CN(C)C)c(F)c2c(=O)n1CCOc1ccc(Cl)cc1-c1ccnc2c(C(=O)O)csc12` [compound 621], the IC50 by setting is: under setting [1], 50 to 1000 nM; under setting [2], 60 nM. The corresponding values for `Cc1cc(-c2cc(Cl)ccc2OCCn2c(C)nc3cc(CF)c(C)c(C#N)c3c2=O)c2scc(C(=O)O)c2n1` [compound 724] are below 50 nM and 37.7 nM. As for `Cc1nc2ccc(OCCN(C)C)c(C#N)c2c(=O)n1CCOc1ccc(Cl)cc1-c1ccnc2c(C(=O)O)csc12` [compound 457], the IC50 was below 50 nM under setting [1] and 11.2 nM under setting [2]. As for `Cc1nc2cc(C(F)(F)F)cc(C#N)c2c(=O)n1CCCc1ccc(Cl)cc1-c1cccc(C(=O)O)c1` [compound 146], the IC50 by setting is: under setting [1], 50 to 1000 nM; under setting [2], 259 nM. For `Cc1nc2cnc(N(C)C3CCN([C@H]4C[C@@H](OC(F)(F)F)C4)CC3)c(C#N)c2c(=O)n1CC#Cc1ccc(Cl)cc1-c1ccnc2c(C(=O)NS(C)(=O)=O)csc12` [compound 1772], the IC50 under setting [3] is 6.07 nM. For `Cc1nc2cnc(N(C)C3CCN(CC(C)(F)F)CC3)c(C#N)c2c(=O)n1CC#Cc1ccc(Cl)cc1-c1ccnc2c(C(=O)NS(=O)(=O)c3cccnc3)csc12` [compound 1144], the IC50 runs as follows: under setting [1], below 50 nM; under setting [2], 34.4 nM. The corresponding values for `Cc1cc(-c2cc(Cl)ccc2OCCn2c(C)nc3c(C)nc(-c4ccccc4C(F)(F)F)c(C#N)c3c2=O)c2scc(C(=O)O)c2n1` [compound 924] are below 50 nM and 14.3 nM. On the same counts, the results for `Cc1cc(-c2cc(Cl)ccc2OCCn2c(C)nc3cnc(N4CC[C@@H](O)C4)c(C#N)c3c2=O)c2scc(C(=O)O)c2n1` [compound 883] are below 50 nM and 12.8 nM.
